Measurements reported in paper PMC9396645 (Frontiers in Chemistry, 2022).

What was measured:
prostate cancer patients = assay: PSMA-PET/CT of prostate cancer patients; type: in vivo, human; conditions: patient PET/CT, 20 nmol
Protocol: Diagnostic PSMA-PET/computed tomography (CT) examinations were performed 1 and 3 h after antecubital injection of 339 MBq/20 nmol ^68Ga-CA028 or 295 MBq/20 nmol ^68Ga-CA030 per patient, respectively. The method for assessing the biodistribution was performed as previously described by Afshar-Oromieh et al. ([Afshar-Oromieh et al., 2015b]). Applying the clinical standard software Syngo (Siemens), which was used to define the VOIs in the PET images, the activity distributions of the source organs was determined. This reference ([Afshar-Oromieh et al., 2015b]) was also used as a standard of reference for ^68Ga-PSMA-617 (Table 3).

[1] = tested on: C4-2 tumor bearing BALB/c nu/nu mice; assay: Small-animal PET imaging in C4-2 tumor bearing mice; type: in vivo, mouse; conditions: for mSUV Bladder / mSUV Heart / mSUV Kidneys / mSUV Liver / mSUV Muscle / mSUV Tumor: small-animal PET, C4-2 xenograft mouse
Source text: (§1) Athymic male nude mice (BALB/c nu/nu) were purchased from Charles River at 4‒5 weeks of age (19–23 g). The mice were kept under pathogen-free conditions for 1 week prior to the study. The mice had free access to water and food and were housed with a 12-h/12-h light/dark cycle. The xenografts required for positron emission tomography (PET) imaging and biodistribution studies were obtained by inoculation of 5 × 10^7 C4-2 cells in 50% Matrigel in Opti-MEM I (1 ×) medium. For this purpose, the mice were anesthetized with 2% sevoflurane, and inoculation was performed subcutaneously on the right trunk. When the size of the tumor was approximately 1 cm^3, the studies were performed.
For small-animal PET imaging, the different ^68Ga-labeled PSMA ligands (0.5 nmol, 20 MBq in approximately 100 µL 0.9% saline) were injected into C4-2 tumor bearing mice. The dynamic PET was recorded in a small animal PET scanner (Siemens Inveon D-PET). The standardized uptake values (SUVs) were obtained from conventional (non-dynamic) PET images. The formula for the SUV was SUV=activity in ROI (Bq/ml) × animal weight (g)/injected dose(Bq)
Manual delineation of the respective appropriate whole organ (heart, kidneys, bladder, tumor, with an approximate volume of 100–500 µL) yielded the volumes of interest (VOIs). For this purpose, whole organs or parts of the organ/tissue (liver and muscle) were used. The images were reconstructed based on the procedure: OSEM 3D/SP MAP with 16 subsets, two iterations, and an image x-y size: 256, image z size: 161. The data were not modified with a post-processing filter. Analysis of the images and time-activity curves (TACs) was conducted on the Inveon™ Acquisition Workplace (IAW) from Siemens IRW 4.1. […] […] The mean SUVs were plotted over time in order to compare the different radiotracers.

[2] = Determination of plasma half-life in athymic nude mice; type: in vivo, mouse; conditions: athymic nude mice (n = 3), i.v. 4–6 MBq, biexponential fit, weighted overall half-life
Protocol: The radioligands ^68Ga-CA027 and ^68Ga-CA028 (4–6 MBq) were injected into athymic nude mice (n = 3) via the lateral tail vein. Blood (25–50 μL) was collected 2, 5, 15, 30, 45, 60, 90, and 120 min post injection via either the tail or saphenous vein, and the activity of the blood samples was determined in a γ-counter. Both procedures furnished consistent and reproducible results. The percentage of the injected dose per gram of tissue (%ID/g) was calculated, and the resulting values were plotted as a function of time. A biexponential decay curve was used as a fit function, accounting for a short blood half-life (a-phase) during the initial phase directly after injection and a longer blood half-life during the terminal phase (b-phase). The data analysis program Prism 7™ was used to determine both half-lives, t1/2-a and t1/2-b, as well as their relative contribution (in %) to the overall half-life (t1/2). Subsequently, both half-lives were weighed according to their relative contribution to the overall blood half-life t1/2. At the time of tracer injection (t = 0), it was assumed that %ID/g = 50. The injected dose at t = 0 equals 100%, divided by the total mass of blood (approximately 2 g in the case of 6‒8 weeks old mice) gives %ID/g t=0 = 50.

[3] = tested on: C4-2 tumor bearing BALB/c nu/nu mice; assay: Biodistribution (organ distribution) in C4-2 tumor-bearing mice; type: in vivo, mouse
Source text: as §1
Based on the results of the PET imaging, ^68Ga-CA028 and ^68Ga-CA030, the most promising compounds, were chosen for biodistribution studies in C4-2 tumor-bearing mice. The labeled compound (0.05 nmol, 20 MBq) was administered to the mice via tail vein injection. Animals were sacrificed and organs were harvested at the following time points: 20 min, 1, 2, and 4 h p.i. The organs were dissected and weighed, the activity was measured with a γ-counter, and the % ID/g was calculated.

SUV mean Bone metastasis (prostate cancer patients; first listed bone metastasis, 1 h p.i.): 4.5
SUV mean Bone metastasis (prostate cancer patients; first listed bone metastasis, 3 h p.i.): 4.1
SUV mean Lymph node (prostate cancer patients; first listed lymph node, 1 h p.i.): 13.5
SUV mean Lymph node (prostate cancer patients; first listed lymph node, 3 h p.i.): 10.7
SUV mean Blood pool, mediastinal (prostate cancer patients; 1 h p.i.): 3.2
SUV mean Colon (prostate cancer patients; 1 h p.i.): 4.9
SUV mean Gluteal muscle (prostate cancer patients; 1 h p.i.): 0.7
SUV mean Kidneys (prostate cancer patients; 1 h p.i.): 13.8
SUV mean Lacrimal gland (prostate cancer patients; 1 h p.i.): 7.4
SUV mean Liver (prostate cancer patients; 1 h p.i.): 4.3
SUV mean Lung metastasis (prostate cancer patients; 1 h p.i.): 5.7
SUV mean Nasal mucosa (prostate cancer patients; 1 h p.i.): 2.9
SUV mean Parotid gland (prostate cancer patients; 1 h p.i.): 11.0
SUV mean Proximal small intestine (prostate cancer patients; 1 h p.i.): 8.4
SUV mean Spleen (prostate cancer patients; 1 h p.i.): 5.1
SUV mean Sublingual gland (prostate cancer patients; 1 h p.i.): 3.8
SUV mean Submandibular gland (prostate cancer patients; 1 h p.i.): 14.4
SUV mean Blood pool, mediastinal (prostate cancer patients; 3 h p.i.): 2.9
SUV mean Colon (prostate cancer patients; 3 h p.i.): 4.2
SUV mean Gluteal muscle (prostate cancer patients; 3 h p.i.): 0.4
SUV mean Kidneys (prostate cancer patients; 3 h p.i.): 10.9
SUV mean Lacrimal gland (prostate cancer patients; 3 h p.i.): 7.6
SUV mean Liver (prostate cancer patients; 3 h p.i.): 1.8
SUV mean Lung metastasis (prostate cancer patients; 3 h p.i.): 4.7
SUV mean Nasal mucosa (prostate cancer patients; 3 h p.i.): 3.5
SUV mean Parotid gland (prostate cancer patients; 3 h p.i.): 8.0
SUV mean Proximal small intestine (prostate cancer patients; 3 h p.i.): 10.4
SUV mean Spleen (prostate cancer patients; 3 h p.i.): 2.5
SUV mean Sublingual gland (prostate cancer patients; 3 h p.i.): 2.8
SUV mean Submandibular gland (prostate cancer patients; 3 h p.i.): 8.9
SUV mean Bone metastasis (prostate cancer patients; second listed bone metastasis, 1 h p.i.): 6.9
SUV mean Bone metastasis (prostate cancer patients; second listed bone metastasis, 3 h p.i.): 5.7
SUV mean Lymph node (prostate cancer patients; second listed lymph node, 1 h p.i.): 17.0
SUV mean Lymph node (prostate cancer patients; second listed lymph node, 3 h p.i.): 25.4
SUV mean Bone metastasis (prostate cancer patients; third listed bone metastasis, 1 h p.i.): 4.6
SUV mean Bone metastasis (prostate cancer patients; third listed bone metastasis, 3 h p.i.): 4.4
SUV mean Lymph node (prostate cancer patients; third listed lymph node, 1 h p.i.): 5.0
SUV mean Lymph node (prostate cancer patients; third listed lymph node, 3 h p.i.): 4.1
mSUV Bladder ([1]; 1 h): 6.50
mSUV Heart ([1]; 1 h): 0.36
mSUV Kidneys ([1]; 1 h): 0.39
mSUV Liver ([1]; 1 h): 0.22
mSUV Muscle ([1]; 1 h): 0.13
mSUV Tumor ([1]; 1 h): 0.81
mSUV Bladder ([1]; 2 h): 2.5
mSUV Heart ([1]; 2 h): 0.13
mSUV Kidneys ([1]; 2 h): 0.29
mSUV Liver ([1]; 2 h): 0.09
mSUV Muscle ([1]; 2 h): 0.05
mSUV Tumor ([1]; 2 h): 0.78
tumor-to-kidney ratio ([1]; mean SUV from PET, 2 h p.i.): 2.69
plasma half-life t1/2 [2]: 5.2 min
tumor uptake ([3]; C4-2 tumor, 20 min after injection, 0.05 nmol, 20 MBq): 12.53 ± 0.45 %ID/g
tumor uptake with blockade ([3]; C4-2 tumor, 1 h p.i., co-injection of non-labeled PSMA-617 2 mg/kg): 1.31 ± 0.34 %ID/g
kidney uptake ([3]; kidneys, 1 h p.i., 0.05 nmol, 20 MBq): 15.58 ± 2.79 %ID/g
kidney uptake with blockade ([3]; kidneys, 1 h p.i., co-injection of non-labeled PSMA-617 2 mg/kg): 2.37 ± 0.52 %ID/g
Compound: O=C([O-])CN1CCN(CC(=O)[O-])CCN(Cc2ccc(C(=O)NCC3CCC(C(=O)NC(Cc4ccc5ccccc5c4)C(=O)NCCCCC(NC(=O)NC(CCC(=O)O)C(=O)O)C(=O)O)CC3)cc2)CCN(CC(=O)[O-])CC1.[68Ga+3] (stereo not drawn) [^68Ga-CA028]
tumor-to-kidney ratio ([1]; mean SUV body weight from dynamic PET, 1 h p.i.): 2.08
